One may read the IC50 as the midpoint of a concentration-inhibition curve. A higher IC50 goes with weaker potency in that assay.

Structures are written as SMILES.

For the assay, the target named is c-Src (Homo sapiens, UniProt P12931). Briefly: c-Src protein kinase assay. In kind it is biochemical. Particulars: Table 5. The method, then:
Several of the invention compounds have been evaluated in a standard assay to measure their ability to inhibit cellular Src protein kinase (c-Src). […] The assay was carried out as follows:
C-Src kinase was purified from baculovirus infected insect cell lysates using an antipeptide monoclonal antibody directed against the N-terminal amino acids (amino acids 2-17) of c-Src. The antibody, covalently linked to 0.65 μm latex beads, was added to a suspension of insect cell lysis buffer comprised of 150 mM NaCl, 50 mM Tris pH 7.5, 1 mM DTT, 1% NP-40, 2 mM EGTA, 1 mM sodium vanadate, 1 mM PMSF, 1 μg/mL each of leupeptin, pepstatin, and aprotinin. Insect cell lysate containing c-Src protein was incubated with these beads for 3 to 4 hours at 4° C. with rotation. At the end of the lysate incubation, the beads were rinsed three times in lysis buffer, resuspended in lysis buffer containing 10% glycerol, and frozen. These latex beads were thawed, rinsed three times in assay buffer (40 mM Tris, pH 7.5, 5 mM […]) and suspended in the same buffer. […] The filters were then punched, counted in a liquid scintillation counter, and the data examined for inhibitory activity in comparison to a known inhibitor such as erbstatin. […]

Chain of c-Src (P12931 whole entry, species assumed): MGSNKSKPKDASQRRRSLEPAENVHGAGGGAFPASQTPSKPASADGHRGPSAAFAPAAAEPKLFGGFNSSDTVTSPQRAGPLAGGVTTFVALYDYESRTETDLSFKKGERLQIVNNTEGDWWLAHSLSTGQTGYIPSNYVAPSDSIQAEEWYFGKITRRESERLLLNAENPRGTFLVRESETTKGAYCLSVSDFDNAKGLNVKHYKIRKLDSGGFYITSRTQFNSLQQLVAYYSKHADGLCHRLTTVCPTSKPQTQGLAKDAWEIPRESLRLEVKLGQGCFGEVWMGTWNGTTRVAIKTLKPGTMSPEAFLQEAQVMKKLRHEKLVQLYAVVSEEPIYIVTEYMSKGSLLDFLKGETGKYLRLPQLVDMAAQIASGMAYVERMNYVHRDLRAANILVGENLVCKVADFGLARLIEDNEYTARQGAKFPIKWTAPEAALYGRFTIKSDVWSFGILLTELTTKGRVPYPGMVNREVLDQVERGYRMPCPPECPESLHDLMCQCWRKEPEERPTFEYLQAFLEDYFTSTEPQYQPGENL

Take `CC1CN(c2ccc(Nc3ncc4ccc(=O)n(C5CCCCC5)c4n3)cc2)CC(C)N1CCO` (stereo not shown) [Example 143, 8-Cyclohexyl-2-{4-[4-(2-hydroxy-ethyl)-3,5-dimethyl-piperazin-1-yl]-phenylamino}-8H-pyrido[2,3-d]pyrimidin-7-one]: the IC50 came out at 1850 nM.
